US11752133B2, “Use of bromophenol-pyrazoline compounds in the treatment of porcine coronavirus diseases” (priority 2020, dated 2023)
Where “and” joins values, the source holds several entries; their conditions need not be identical. Equal values may be shown once.

How the values were obtained:
[1] = test system: porcine transmissible gastroenteritis virus (TGEV); assay: Inhibition of TGEV replication in infected Vero E6 cells (vRNA in supernatant by qRT-PCR); assay type: cell-based; details: 10 μM and 2 μM, MOI 0.05, 24 h, FIG. 2
Method: This Example evaluated whether bromophenol-pyrazoline compounds can inhibit replication of porcine coronavirus in Vero E6 cells infected with clinically isolated strains of porcine transmissible gastroenteritis virus (TGEV).
(§1) Specific operation: pre-seeded Vero E6 cells (5×10^4 cells/well) were respectively pretreated for 1 h with different concentrations of bromophenol-pyrazoline compounds to be tested (2 μM and 10 μM), and then infected with porcine coronavirus (TGEV; MOI: 0.05) for 2 h. Then, a virus-compound mixture was removed, and the cells were further cultured with a fresh medium containing the bromophenol-pyrazoline compound. After 24 hours, a cell supernatant was collected, and vRNA in the supernatant was analyzed by qRT-PCR. The treatment without a bromophenol-pyrazoline compound was used as a control.

[2] = test system: porcine epidemic diarrhea virus (PEDV); assay: Inhibition of PEDV replication in infected Vero E6 cells (vRNA in supernatant by qRT-PCR); assay type: cell-based; details: 10 μM and 2 μM, MOI 0.05, 24 h, FIG. 1
Method: This Example evaluated whether bromophenol-pyrazoline compounds can inhibit replication of porcine coronavirus in Vero E6 cells infected with clinically isolated strains of porcine epidemic diarrhea virus (PEDV).
as §1, with “(PEDV;” for “(TGEV;”

[3] = test system: porcine epidemic diarrhea virus; assay: Clinical trial in diseased pigs with epidemic diarrhea (PEDV infection); assay type: in vivo, pig; details: for Diarrhea Scoring Index: individual pigs, 0 formed manure, 1 thick not formed, 2 manure and water separation, 3 watery manure; for Effective rate / Number of deaths / Mortality rate: diseased pigs within 10 days of age; for Effective rate: 72 h, based on diarrhea scoring index; for Number of deaths: 72 h observation, treatment twice a day; for Mortality rate: piglet deaths at end of 72 h test
Method: Through the PCR detection of diseased pig tissues at Zhucheng Pig Farm in November 2020, the type of viral infection was determined.
Diseased pigs with epidemic diarrhea within 10 days of age were selected and randomly divided into 4 groups, i.e. untreated group, traditional Chinese medicine treatment group, compound 4 treatment group and lgY antibody treatment group, respectively. The traditional Chinese medicine treatment group was drenched with a compound decoction consisting of dandelion, Chinese violet, coptis, isatis root, etc., twice a day for 3 consecutive days. Compound 4 was taken at a dose of 25 mg/pig after being dissolved in a dextrose solution, twice a day. The lgY antibody treatment group was fed with chicken egg antibodies (lgY), twice a day. The untreated group, the traditional Chinese medicine treatment group and the lgY antibody treatment group were respectively drenched with the same dose of the glucose solution as the compound 4 treatment group. The pigs were breast-fed during treatment.
During the clinical treatment of the diseased pigs with epidemic diarrhea, the diarrhea indexes of the diseased pigs in the untreated group (6 pigs), the compound 4 treatment group (8 pigs) and the lgY antibody treatment group (6 pigs) were scored through sampling.

## CC(C)(C)c1ccc(Oc2ccc(C3=NN(C(N)=S)C(c4ccc(O)c(O)c4)C3)cc2)cc1 (centres unmarked) [Compound 4]
[1]
  inhibitory activity against replication of TGEV (viral RNA): strongest inhibitory activity
[2]
  inhibitory activity against replication of PEDV (viral RNA): strongest inhibitory activity
[3]; 8 scored diseased pigs, 24 h after oral administration
  alleviation of diarrhea: significantly alleviated diarrhea
[3]; 8 scored diseased pigs, 72 h after oral administration
  curative ratio: 100%
[3]; 12 h after administration
  Diarrhea Scoring Index: 3 (7×) and 2
[3]; 24 h after administration
  Diarrhea Scoring Index: 2 (7×) and 1
[3]; 48 h after administration
  Diarrhea Scoring Index: 0 (5×) and 1 (2×) and 2
[3]; 72 h after administration
  Diarrhea Scoring Index: 0
[3]
  Effective rate: 100%
  Number of deaths: 0
  Mortality rate: 0%
[3]; listed as compound 4
  Effective rate: 100%
  Number of deaths: no pig died
  Mortality rate: 0%
